Measured values: ChEMBL document CHEMBL5247648, “Design, Synthesis, and Anti-Cancer Evaluation of Novel Cyclic Phosphate Prodrug of Gemcitabine” (J Med Chem, 2023)

Legend:
BXPC-3 [1] = assay: Antiproliferative activity against human BXPC-3 cells assessed as inhibition of cell proliferation treated for 72 hrs by resazurin dye-based fluorescence assay; assay type: functional; conditions: BXPC-3, 72 h
MIA PaCa-2 = assay: Antiproliferative activity against human MIA PaCa-2 cells assessed as inhibition of cell proliferation treated for 72 hrs by resazurin dye-based fluorescence assay; assay type: functional; conditions: MIA PaCa-2, 72 h
MM1.S = assay: Antiproliferative activity against human MM1.S cells assessed as inhibition of cell proliferation treated for 72 hrs by resazurin dye-based fluorescence assay; assay type: functional
[2] = AUC (0 to infinity) in Beagle dog at 1 mg/kg, iv measured for 0.083 to 24 hrs by LC-MS/MS analysis; assay type: ADME, organism-based, Canis lupus familiaris; parameters: time upper 24 hrs, time lower 0.083 hrs, dose 1 mg/kg, route iv; conditions: in vivo
MV4-11 = assay: Antiproliferative activity against human MV4-11 cells assessed as inhibition of cell proliferation treated for 72 hrs by resazurin dye-based fluorescence assay; assay type: functional; conditions: MV4-11, 72 h
[3] = Half life in Beagle dog at 1 mg/kg, iv measured for 0.083 to 24 hrs by LC-MS/MS analysis; assay type: ADME, organism-based, Canis lupus familiaris; conditions: in vivo, time 0.083-24 hrs
CWR22R [4] = assay: Antiproliferative activity against human 22Rv1 cells assessed as inhibition of cell proliferation treated for 72 hrs by resazurin dye-based fluorescence assay; assay type: functional; conditions: 22Rv1, 72 h
[5] = Cmax in Beagle dog at 1 mg/kg, iv measured for 0.083 to 24 hrs by LC-MS/MS analysis; assay type: ADME, organism-based, Canis lupus familiaris; parameters: time upper 24 hrs, time lower 0.083 hrs, dose 1 mg/kg, route iv; conditions: in vivo
[6] = Clearance in Beagle dog at 1 mg/kg, iv measured for 0.083 to 24 hrs by LC-MS/MS analysis; assay type: ADME, organism-based, Canis lupus familiaris; conditions: in vivo, time 0.083-24 hrs
Huh-7 = assay: Antiproliferative activity against human Huh-7 cells assessed as inhibition of cell proliferation treated for 72 hrs by resazurin dye-based fluorescence assay; assay type: functional; conditions: Huh-7, 72 h
JeKo-1 = assay: Antiproliferative activity against human JeKo-1 cells assessed as inhibition of cell proliferation treated for 72 hrs by resazurin dye-based fluorescence assay; assay type: functional; conditions: JeKo-1, 72 h
BXPC-3 [7] = assay: Induction of apoptosis in human BXPC-3 cells assessed as late cells at 100 nM incubated for 24 hrs by […] (reference value: 1.24 %); assay type: functional
[8] = Toxicity in castrated male nude Balb/c mouse xenografted with human 22Rv1 cells assessed as toxic signs at 50 mg/kg, ip administered twice a week measured after 28 days; assay type: organism-based, CWR22R; conditions: in vivo, 672 h, time 28 day
CWR22R [9] = assay: In vivo antitumor activity against human 22Rv1 cells xenografted in castrated male nude Balb/c mouse assessed as relative increment ratio at 50 mg/kg, ip administered twice a week measured after 28 days relative to control; assay type: functional; conditions: time 28 day
[10] = Toxicity in castrated male nude Balb/c mouse xenografted with human 22Rv1 cells assessed as tolerance at 50 mg/kg, ip administered twice a week measured after 28 days; assay type: organism-based, CWR22R; conditions: in vivo, 672 h, time 28 day
BXPC-3 [11] = assay: Induction of apoptosis in human BXPC-3 cells assessed as early cells at 100 nM incubated for 24 hrs by […] (reference value: 1.68 %); assay type: functional
BXPC-3 [12] = assay: Induction of apoptosis in human BXPC-3 cells assessed as viable cells at 100 nM incubated for 24 hrs by […] (reference value: 93.51 %); assay type: functional; conditions: read-out: Activity
CWR22R [13] = assay: In vivo antitumor activity against human 22Rv1 cells xenografted in castrated male nude Balb/c mouse assessed as tumor growth inhibition at 50 mg/kg, ip administered twice a week measured after 28 days relative to control; assay type: functional; conditions: 22Rv1, 672 h, time 28 day, read-out: TGI
BXPC-3 [14] = assay: Induction of apoptosis in human BXPC-3 cells assessed as necrotic cells at 100 nM incubated for 24 hrs by […] (reference value: 3.57 %); assay type: functional
[15] = Toxicity in castrated male nude Balb/c mouse xenografted with human 22Rv1 cells assessed as animal weight loss at 50 mg/kg, ip administered twice a week measured after 28 days; assay type: organism-based, CWR22R; conditions: in vivo, 672 h, time 28 day

SMILES | IC50 (BXPC-3 [1]) | IC50 (MIA PaCa-2) | IC50 (MM1.S) | IC50 (MV4-11) | IC50 (CWR22R [4]) | IC50 (Huh-7) | IC50 (JeKo-1) | further results
Nc1ccn([C@@H]2O[C@@H]3COP(=O)(OCCC(=O)OCc4ccccc4)O[C@H]3C2(F)F)c(=O)n1 (stereo not given in full) | 0.0684 µM | 0.029 µM | – | – | – | – | – | –
CCCC(CCC)C(=O)Nc1ccn([C@@H]2O[C@H](COP(=O)(N[C@@H](C)C(=O)OC(C)C)OCC(=O)OC)[C@@H](O)C2(F)F)c(=O)n1 (stereo not given in full) | > 1 µM | > 1 µM | > 1 µM | – | – | – | – | –
Nc1ccn([C@@H]2O[C@H](CO)[C@@H](OP(=O)(O)OCC(=O)OCc3ccccc3)C2(F)F)c(=O)n1 | 0.0645 µM | – | 0.0173 µM | 0.0103 µM | 0.0432 µM | 0.069 µM | – | AUC(0-inf) [2]: 0.637 µg·h/mL; half-life [3]: 35.2 min; Cmax [5]: 2.56 µg/mL; clearance [6]: 1.7 L/h/kg
Nc1ccn([C@@H]2O[C@@H]3CO[P@@](=O)(OCC(=O)OCc4ccccc4)O[C@H]3C2(F)F)c(=O)n1 | 0.015 µM | – | 0.006 µM | 0.0041 µM | 0.0081 µM | 0.022 µM | – | –
COC(=O)COP(=O)(N[C@@H](C)C(=O)OC(C)C)OC[C@H]1O[C@@H](n2ccc(N)nc2=O)C(F)(F)[C@@H]1O (stereo not given in full) | 0.0405 µM | 0.0294 µM | 0.0047 µM | 0.0035 µM | – | 0.0411 µM | 0.0262 µM | –
CC(C)OC(=O)[C@H](C)NP(=O)(OC[C@H]1O[C@@H](n2ccc(N)nc2=O)C(F)(F)[C@@H]1O)Oc1ccccc1 (stereo not given in full) | > 1 µM | 0.71 µM | 0.5 µM | – | – | – | – | –
CCOC(=O)COP1(=O)OC[C@H]2O[C@@H](n3ccc(N)nc3=O)C(F)(F)[C@@H]2O1 (stereo not given in full) | 0.0226 µM | 0.0163 µM | 0.0039 µM | 0.0061 µM | 0.0205 µM | 0.0384 µM | 0.0316 µM | –
CC(C)OC(=O)COP1(=O)OC[C@H]2O[C@@H](n3ccc(N)nc3=O)C(F)(F)[C@@H]2O1 (stereo not given in full) | 0.0475 µM | 0.0242 µM | 0.0054 µM | 0.0049 µM | 0.015 µM | 0.0261 µM | 0.0234 µM | –
CCCC(CCC)C(=O)Nc1ccn([C@@H]2O[C@H](COP(=O)(N[C@@H](C)C(=O)OCc3ccccc3)Oc3ccccc3)[C@@H](O)C2(F)F)c(=O)n1 (stereo not given in full) | > 1 µM | > 1 µM | > 1 µM | – | – | – | – | –
Nc1ccn([C@@H]2O[C@H](COP(=O)(O)OCC(=O)OCc3ccccc3)[C@@H](O)C2(F)F)c(=O)n1 | 0.0645 µM | – | 0.0173 µM | 0.0103 µM | 0.0432 µM | 0.069 µM | – | AUC(0-inf) [2]: 0.637 µg·h/mL; half-life [3]: 35.2 min; Cmax [5]: 2.56 µg/mL; clearance [6]: 1.7 L/h/kg
C[C@H](NP(=O)(OC[C@H]1O[C@@H](n2ccc(N)nc2=O)C(F)(F)[C@@H]1O)Oc1ccccc1)C(=O)OC1CCCCC1 (stereo not given in full) | > 1 µM | 0.54 µM | 0.13 µM | – | – | – | – | –
CCC(=O)Nc1ccn([C@@H]2O[C@@H]3COP(=O)(OCC(=O)OCc4ccccc4)O[C@H]3C2(F)F)c(=O)n1 (stereo not given in full) | 0.908 µM | 0.53 µM | – | – | – | – | – | –
COC(=O)COP1(=O)OC[C@H]2O[C@@H](n3ccc(N)nc3=O)C(F)(F)[C@@H]2O1 (stereo not given in full) | 0.0311 µM | 0.0136 µM | 0.0027 µM | 0.0058 µM | 0.0215 µM | 0.023 µM | 0.0232 µM | –
COC(=O)COP(=O)(N[C@@H](C)C(=O)OCc1ccccc1)OC[C@H]1O[C@@H](n2ccc(N)nc2=O)C(F)(F)[C@@H]1O (stereo not given in full) | 0.0352 µM | 0.027 µM | 0.0041 µM | 0.0058 µM | – | 0.0282 µM | 0.0226 µM | –
Nc1ccn([C@@H]2O[C@@H]3CO[P@](=O)(OCC(=O)OCc4ccccc4)O[C@H]3C2(F)F)c(=O)n1 | 0.0145 µM | – | 0.005 µM | 0.0038 µM | 0.0106 µM | 0.022 µM | – | –
COC(=O)[C@H](C)NP(=O)(OC[C@H]1O[C@@H](n2ccc(N)nc2=O)C(F)(F)[C@@H]1O)Oc1ccccc1 (stereo not given in full) | > 1 µM | 0.553 µM | 0.111 µM | – | – | – | – | –
C[C@H](NP(=O)(OC[C@H]1O[C@@H](n2ccc(N)nc2=O)C(F)(F)[C@@H]1O)Oc1ccccc1)C(=O)OCc1ccccc1 (stereo not given in full) [FOSGEMCITABINE PALABENAMIDE] | 0.23 µM | 0.142 µM | 0.0311 µM | 0.061 µM | 0.13 µM | 0.35 µM | 0.16 µM | Activity (BXPC-3 [7]): 2.3%; Activity [8]: Non-Toxic; T/C (CWR22R [9]): 51.9%; Activity [10]: Non-Toxic; Activity (BXPC-3 [11]): 1.52%; viability at 0.1 µM (BXPC-3 [12]): 88.7%; inhibition in vivo at 50 mg/kg (CWR22R [13]): 55.6%; Activity (BXPC-3 [14]): 7.48%; Activity [15]: Non-Toxic
Nc1ccn([C@@H]2O[C@@H]3COP(=O)(OCCCC(=O)OCc4ccccc4)O[C@H]3C2(F)F)c(=O)n1 (stereo not given in full) | 0.0783 µM | 0.0357 µM | – | – | – | – | – | –
Nc1ccn([C@@H]2O[C@@H]3COP(=O)(OCCCCC(=O)OCc4ccccc4)O[C@H]3C2(F)F)c(=O)n1 (stereo not given in full) | 0.213 µM | 0.0509 µM | – | – | – | – | – | –
